{
  "source": "patent US12447151B2",
  "about": "“Alkyne derivative, preparation method for same, and uses thereof” (ZHEJIANG HISUN PHARMACEUTICAL CO., LTD., priority 2019, dated 2025)",
  "key": {"[1]": {"target": "recombinant human PI3Kβ (Homo sapiens (Human), UniProt P42338)", "sequence (P42338 whole entry)": "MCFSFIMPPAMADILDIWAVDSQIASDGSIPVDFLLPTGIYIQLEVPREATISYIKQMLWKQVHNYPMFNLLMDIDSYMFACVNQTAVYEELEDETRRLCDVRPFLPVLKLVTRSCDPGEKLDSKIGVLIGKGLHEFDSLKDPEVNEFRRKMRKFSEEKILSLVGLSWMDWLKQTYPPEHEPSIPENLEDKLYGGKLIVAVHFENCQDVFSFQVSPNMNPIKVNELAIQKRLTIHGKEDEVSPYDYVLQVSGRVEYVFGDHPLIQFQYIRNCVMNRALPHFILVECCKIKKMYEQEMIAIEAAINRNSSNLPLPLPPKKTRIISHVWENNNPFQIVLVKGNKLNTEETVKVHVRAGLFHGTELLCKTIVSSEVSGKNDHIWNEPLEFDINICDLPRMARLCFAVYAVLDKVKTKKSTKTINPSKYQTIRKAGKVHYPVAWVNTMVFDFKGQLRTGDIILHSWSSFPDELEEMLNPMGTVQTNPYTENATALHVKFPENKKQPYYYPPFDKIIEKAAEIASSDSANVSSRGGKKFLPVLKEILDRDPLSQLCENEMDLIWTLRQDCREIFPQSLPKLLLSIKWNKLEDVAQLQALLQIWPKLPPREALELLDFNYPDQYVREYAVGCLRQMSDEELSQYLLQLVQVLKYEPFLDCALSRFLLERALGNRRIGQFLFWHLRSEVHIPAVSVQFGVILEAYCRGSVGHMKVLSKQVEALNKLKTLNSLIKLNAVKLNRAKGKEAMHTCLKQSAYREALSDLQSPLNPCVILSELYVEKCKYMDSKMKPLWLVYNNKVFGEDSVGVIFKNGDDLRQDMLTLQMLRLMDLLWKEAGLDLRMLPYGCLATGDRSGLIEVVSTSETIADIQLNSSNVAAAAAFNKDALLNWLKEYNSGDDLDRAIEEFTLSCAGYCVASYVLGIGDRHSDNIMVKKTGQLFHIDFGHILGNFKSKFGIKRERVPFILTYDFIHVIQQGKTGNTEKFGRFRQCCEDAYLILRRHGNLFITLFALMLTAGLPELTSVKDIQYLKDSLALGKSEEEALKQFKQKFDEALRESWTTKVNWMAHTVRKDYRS", "sequence (P27986 whole entry partner)": "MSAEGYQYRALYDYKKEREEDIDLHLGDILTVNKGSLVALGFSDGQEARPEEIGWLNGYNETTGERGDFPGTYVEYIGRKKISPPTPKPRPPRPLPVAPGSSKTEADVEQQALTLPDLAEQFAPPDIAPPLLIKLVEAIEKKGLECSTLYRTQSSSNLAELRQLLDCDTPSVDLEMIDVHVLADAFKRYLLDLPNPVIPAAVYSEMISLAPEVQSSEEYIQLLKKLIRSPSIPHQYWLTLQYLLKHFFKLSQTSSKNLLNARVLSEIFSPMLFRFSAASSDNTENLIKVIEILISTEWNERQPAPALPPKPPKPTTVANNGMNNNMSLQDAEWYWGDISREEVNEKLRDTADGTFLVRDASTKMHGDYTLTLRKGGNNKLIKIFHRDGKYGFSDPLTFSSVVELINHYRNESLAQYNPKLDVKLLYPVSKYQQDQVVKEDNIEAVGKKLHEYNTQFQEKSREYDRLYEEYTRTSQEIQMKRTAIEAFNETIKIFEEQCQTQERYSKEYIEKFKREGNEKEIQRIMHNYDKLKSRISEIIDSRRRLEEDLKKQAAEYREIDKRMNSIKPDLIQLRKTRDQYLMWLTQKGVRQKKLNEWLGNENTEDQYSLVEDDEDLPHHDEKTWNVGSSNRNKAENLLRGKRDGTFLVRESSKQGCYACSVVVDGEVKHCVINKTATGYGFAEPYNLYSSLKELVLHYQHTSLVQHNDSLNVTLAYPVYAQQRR", "assay": "Inhibitory activity on PI3K kinase (ADP-Glo Kinase Assay)", "text": "(§1) The following method is used to determine the degree of inhibition of recombinant human PI3Kα, PI3Kβ, PI3Kγ and PI3Kδ kinase activity by the compounds of the present invention under in vitro conditions. Promega's ADP-Glo Kinase Assay Kit (Cat. No. V9102) was used in this method. The above kit was a luminescence kinase detection kit, which was used to detect the ADP content produced by the kinase reaction. The ADP content was positively correlated with the kinase activity. By measuring the ADP content, the inhibition of the compound on the activity of PI3Kα, PI3Kβ, PI3Kγ and PI3Kδ kinases was reflected. […] Recombinant human PI3Kα, PI3Kγ, and PI3Kδ were purchased from Invitrogen, and PI3Kβ was purchased from Promega (category numbers were PI3Kα: PV4788; PI3Kβ: V1751; PI3Kγ: PV4786 and PI3Kδ: PV6451 separately)."}, "[2]": {"assay": "Oral pharmacokinetics in ICR mice", "assay_type": "in vivo", "settings": "male, mouse, plasma, Oral (5 mg/kg)", "description": "Using ICR mice as the test animals, the mice were intragastrically administrated with the compound of the present invention. LC/MS/MS method was used to determine the drug concentration in the plasma at different times to study the pharmacokinetic characteristics of the compound of the present invention in mice.\nAn appropriate amount of the compound to be tested was weighed, and 0.5% sodium carboxymethylcellulose (containing 0.05% Tween80) was added. The mixture was vortexed, and sonicated so that the solid was ultrasonically dispersed uniformly to obtain a suspension; 100 μL×2 of the preparation were aspirated, and placed in 1.5-mL EP tubes, stored at 2 to 8° C. The concentration of the preparation was 0.5 mg/mL.\nTwenty-seven healthy adult ICR male mice were fasted overnight and then intragastrically administered (dosage of administration was 5 mg/kg), and fed 4 hours after administration.\nAt 0.083 hours, 0.25 hours, 0.5 hours, 1 hour, 2 hours, 4 hours, 8 hours, 12 hours, and 24 hours after administration, 80 μL of blood was collected from the orbital vein. About 0.08 mL of blood was collected, and placed in EDTA-K2 anticoagulation tube. […] The collected plasma was stored at −40 to −20° C. before analysis. The […] method was used to determine the content of the test compound in the plasma of ICR mice after intragastric administration of different compounds."}, "[3]": {"system": "CT26 mouse colon cancer cell subcutaneously transplanted tumor", "assay": "Growth inhibition of CT26 mouse colon cancer subcutaneously transplanted tumor model, alone and combined with PD-L1 monoclonal antibody", "assay_type": "in vivo, BALB/c mice", "settings": "21st day after administration, Example 2 60 mg/kg gavage once a day, Anti-PD-L1 200 μg each i.p. once every 3 days, 4 times; for IR(%), tumor inhibition percentage: by tumor weight", "description": "The anti-tumor effect of the combination of the compound of Example 2 and PD-L1 monoclonal antibody in CT26 mouse colon cancer cell subcutaneously transplanted tumor model was evaluated.\nAn appropriate amount of the compound of Example 2 was weighed into a centrifuge tube, and 5% NMP 95% PEG400 was added. The mixture was vortexed to a fully soluble solution with a concentration of 6 mg/mL, which was prepared before immediate use.\nRecombinant anti-PD-L1 whole mouse monoclonal antibody (InVivoMAb anti-mouse PD-L1 (B7-H1), purchased from Bioxcell, Clone 10F.9G2, catalog number: BE0101, batch number: 720619F1) was diluted with PBS so that the concentration was 1 mg/mL, which was prepared before immediate use.\nBALB/c mice, female, 7-8 weeks (the age of mice at the time of tumor cell inoculation), weight of 18.4-19.1 g, 9 mice in each group, purchased from Zhejiang Weitong Lihua Laboratory Animal Technology Co., Ltd., license number: SOCK (Zhejiang) 2019-0001.\nCT26 mouse colon cancer cells were cultured in RPMI-1640 culture medium containing 10% fetal bovine serum, 100 U/mL penicillin and 100 μg/mL streptomycin. CT26 cells in the exponential growth phase were collected and resuspended in PBS to a suitable concentration for subcutaneous tumor inoculation in mice.\nFemale BALB/c mice were subcutaneously inoculated with 2.5×10^5 CT26 cells on the back. When the average tumor volume was about 127 mm^3, they were randomly grouped according to the size of the tumor. They were divided into 4 groups with each group of 9 animals, and the day of grouping was defined as day 0.\nAfter tumor inoculation, routine monitoring included the effects of tumor growth and treatment on the normal behavior of animals. The specific content included the activity of the experimental animal, food and water consumption, weight gain or loss, abnormal conditions of eyes, coat and others. The tumor volume was weighed and measured twice a week. The administration period was 21 days. On the 21st day, the mice were weighed and the tumor volume was measured. The next day after the tumor volume was measured, the mice were sacrificed and tumor masses were taken and weighed. The tumor volume (TV), relative tumor volume (RTV), relative tumor growth rate (T/C), tumor inhibition percentage (IR) and relative tumor inhibition rate (TGI) were calculated, and statistical testing was performed. The calculation formulas were as follows:\n(1) TV=1/2×a×b^2, where a and b represent the length and width of the tumor respectively;\n(2) RTV=Vt/V0, where V0 is the tumor volume measured during administration in grouping (i.e. d0), and Vt is the tumor volume during each measurement;"}, "[4]": {"assay": "Metabolic stability in liver microsomes", "assay_type": "in vitro ADME", "settings": "human liver microsomes 0.5 mg/mL, 1 μM compound, NADPH 1 mM; read-out: half-life period/(T1/2, min)", "description": "The test compound was co-incubated with human liver microsomes, and coenzyme NADPH was added to initiate the reaction. At 0, 5, 15, 30 and 60 minutes, 20 μL of incubation solution was taken out and transferred to 200 μL of acetonitrile containing internal standard to stop the reaction. After protein precipitation, centrifugation was performed at 3,700 rpm for 10 minutes and the supernatant was taken. The supernatant was diluted 1:1 with water and analyzed by LC-MS/MS method. According to the elimination half-life of the test compound in the incubation system, the in vitro intrinsic clearance rate was calculated. Midazolam was used as the internal reference compound and incubated for two aliquots in parallel.\nThe ratio of peak area of the analyte/internal standard (Aanalyte/AIS) was obtained by the instrument. The remaining percentage (% Control) was calculated from the ratio of Aanalyte/AIS in the non-zero time point sample to the zero time point sample. Ln (% Control) versus incubation time was plotted and a linear fit was performed. The clearance constant (k, min^−1), the clearance half-life (T1/2, min) and the in vitro intrinsic clearance rate (CLint, mL·min^−1·mg^−1 proteins) of the test compound were calculated by the following equations.\nCprotein(mg·mL^−1) refers to the concentration of microsomal protein in the incubation system."}, "[5]": {"target": "recombinant human PI3Kα (Homo sapiens (Human), UniProt P42336)", "sequence (P42336 whole entry)": "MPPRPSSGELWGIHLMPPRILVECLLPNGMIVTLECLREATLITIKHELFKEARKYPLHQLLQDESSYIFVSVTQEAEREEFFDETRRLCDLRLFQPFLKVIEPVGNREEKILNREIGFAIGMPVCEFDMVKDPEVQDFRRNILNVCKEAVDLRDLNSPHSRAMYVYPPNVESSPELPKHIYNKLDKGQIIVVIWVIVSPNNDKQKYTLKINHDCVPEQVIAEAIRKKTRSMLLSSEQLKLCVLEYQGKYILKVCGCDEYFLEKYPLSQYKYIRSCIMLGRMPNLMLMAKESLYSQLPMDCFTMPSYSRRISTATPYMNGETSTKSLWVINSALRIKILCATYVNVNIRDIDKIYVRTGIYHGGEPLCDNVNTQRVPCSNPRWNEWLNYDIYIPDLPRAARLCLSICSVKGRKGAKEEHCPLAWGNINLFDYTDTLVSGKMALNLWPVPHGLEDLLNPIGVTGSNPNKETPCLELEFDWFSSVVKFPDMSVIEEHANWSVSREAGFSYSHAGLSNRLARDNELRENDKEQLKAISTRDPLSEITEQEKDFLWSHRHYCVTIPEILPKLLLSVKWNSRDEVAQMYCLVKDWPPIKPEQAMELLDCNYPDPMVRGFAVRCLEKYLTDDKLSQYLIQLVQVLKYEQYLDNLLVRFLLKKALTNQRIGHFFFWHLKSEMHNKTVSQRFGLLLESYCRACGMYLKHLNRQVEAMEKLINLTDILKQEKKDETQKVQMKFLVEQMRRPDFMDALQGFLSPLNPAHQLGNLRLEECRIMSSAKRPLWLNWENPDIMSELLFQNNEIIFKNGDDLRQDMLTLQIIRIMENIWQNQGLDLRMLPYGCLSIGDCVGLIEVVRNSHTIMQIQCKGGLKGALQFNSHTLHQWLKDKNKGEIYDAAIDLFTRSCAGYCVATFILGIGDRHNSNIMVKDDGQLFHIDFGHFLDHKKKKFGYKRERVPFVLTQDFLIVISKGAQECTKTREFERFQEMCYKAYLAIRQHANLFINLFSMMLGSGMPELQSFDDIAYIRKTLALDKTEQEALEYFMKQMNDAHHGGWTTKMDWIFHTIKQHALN", "sequence (P27986 whole entry partner)": "as the sequence (P27986 whole entry partner) above", "assay": "Inhibitory activity on PI3K kinase (ADP-Glo Kinase Assay)", "text": "as §1"}},
  "data": [
    {"smiles": "C[C@H](NC(=O)c1c(N)nn2cccnc12)c1nc2cccc(C#Cc3cnn(C4CC4)c3)c2c(=O)n1-c1ccccc1", "note": "[Example 2, (S)-2-amino-N-(1-(5-((1-cyclopropyl-1H-pyrazol-4-yl)ethynyl)-4-oxo-3-phenyl-3,4-dihydroquinazolin-2-yl)ethyl)pyrazolo[1,5-a]pyrimidine-3-carboxamide]", "values": [
      {"measurement": "IC50", "setting": "[1]", "value": 466, "unit": "nM"},
      {"measurement": "AUC(0-inf)", "setting": "[2]; read-out: Area under the curve AUC0-∞", "value": 15100, "unit": "ng·h/mL"},
      {"measurement": "bioavailability", "setting": "[2]; read-out: Bioavailability F", "value": 60, "unit": "%"},
      {"measurement": "half-life", "setting": "[2]; read-out: Half-life period T½ (converted)", "value": 3.4, "unit": "h"},
      {"measurement": "Cmax", "setting": "[2]; read-out: Plasma concentration Cmax", "value": 1730, "unit": "ng/mL"},
      {"measurement": "RTV (x ± S), relative tumor volume", "setting": "[3]", "value": "5.47 ± 1.05"},
      {"measurement": "TGI (%), relative tumor inhibition rate", "setting": "[3]", "value": 51.2, "unit": "%"},
      {"measurement": "Tumor weight (g) (x ± S)", "setting": "[3]", "value": "0.5942 ± 0.1730", "unit": "g"},
      {"measurement": "TV (x ± S), tumor volume", "setting": "[3]; in mm³ (unit assumed)", "value": "723.47 ± 159.50"},
      {"measurement": "IR(%), tumor inhibition percentage", "setting": "[3]; listed as Compound of Example 2", "value": 52.1, "unit": "%"},
      {"measurement": "IR(%), tumor inhibition percentage", "setting": "[3]; listed as compound of Example 2", "value": 52.1, "unit": "%"},
      {"measurement": "half-life at 1 μM", "setting": "[4]", "value": 233, "unit": "min"},
      {"measurement": "IC50", "setting": "[5]", "value": 215, "unit": "nM"}
    ]}
  ]
}
